# Patent publication US11465980B2, “6-membered aza-heterocyclic containing delta-opioid receptor modulating compounds, methods of using and making the same” (Trevena, Inc., priority 2015, dated 2022)
# Read-outs that look alike come from different tables or passages of the source.
# How the values were obtained:
# adult male C57 mice = assay: Tail suspension test (TST); assay type: in vivo, mouse; details: route sc, p < 0.05 compared to vehicle-treated mice; for minimal effective dose: Mus musculus, read-out: Active TST Dose
# Protocol: The experiments were performed using adult male C57 mice (6-10 weeks of age, 20-30 g, Hilltop Lab, PA). The mice were housed in standard rodent cages with stainless steel mesh wire bar lids in groups of 4 with controlled temperature and light cycle (6:00 a.m.-6:00 p.m.). Animals were given free access to food (Harlan Teklad Global 18% protein (Madison, Wis.)) and water during a minimum 2-day habituation period to the laboratory. Animals that were used in the study were handled, housed, and sacrificed (using compressed CO2) in accord with the current NIH guidelines regarding the use and care of laboratory animals, and all applicable local, state, and federal regulations and guidelines. Animals are identified by cage number, and by markings applied to the proximal tip of the tail using a permanent marker. Group sizes (n=8, and therefore 30-50 animals per study) provide reliable estimates of treatment effects, and this species and strain of mouse has been recognized as appropriate for pharmacology studies.
# To measure efficacy of the compounds the compounds were tested using a tail suspension test. The tail suspension test is a behavioral test used to evaluate the efficacy of antidepressant drugs in rodents. In the TST, mice (n=8/group) were suspended by the tail with tape approximately 30-50 cm above the lab bench. Mice are positioned such that the base of their tail is perpendicular to the lab bench. Each mouse is given 1 trial that last 6 minutes. The total duration of immobility is calculated as the percentage of time that the mouse is immobile. The duration of immobility is the main parameter measured. This is calculated from the cumulated time during which the animals is absent of initiated movements including passive swaying. When antidepressant drugs are administered, immobility is decreased by a variety of classes of antidepressant drugs. One or more of the compounds show antidepressant activity.
# mouse [1] = assay: Tactile allodynia produced by nitroglycerin (migraine model, mouse); assay type: in vivo; details: route sc, nitroglycerin 10 mg/kg ip, p < 0.05 vs vehicle; for minimal effective dose: read-out: Active Migraine Doses
# Protocol: Compounds were tested for efficacy in rodent models of nitroglycerine induced migraine. In this model both rats and mice can be induced to have a behavioral response consistent with the progression of a migraine attack by the intraperitoneal injection of nitroglycerin. In this test mice or rats (n=8/group) are given an intraperitoneal injection of nitroglycerin at 10 mg/kg. After 90 minutes the animals are subcutaneously dosed with test compound. A measurement of mechanical allodynia will be obtained using the up/down method with seven von Frey monofilaments. There is a specific series used for rat and mouse. Each monofilament is delivered to the hind paw for approximately 1-2 seconds. If there is a response, the next lower force will be delivered. This procedure will be performed until no response was made at the highest force or until four stimuli are administered following the initial response. The 50% paw withdrawal threshold for the hind paw will be calculated using the following formula: [Xth]log=[vFr]log+ky where [vFr] is the force of the last von Frey used, k is the average interval (in log units) between the von Frey monofilaments, and y is a value that depends upon the pattern of withdrawal responses. Testing for tactile sensitivity will be performed and a withdrawal value will be assigned as the tactile sensitivity (expressed in grams of force required to elicit a response) for the injected paw for each animal. Data is presented as the mean grams required to produce a hind paw withdrawal from the von Frey stimulus. […] Compounds found to be effective in this model of migraine at the doses indicated, although other doses may also be active. Other compounds described herein were not necessarily tested, but are expected to be able have some level of efficacy.
# rat [2] = assay: Tactile allodynia produced by nitroglycerin (migraine model, rat); assay type: in vivo; details: route sc, nitroglycerin 10 mg/kg ip, p < 0.05 vs vehicle
# [3] = molecular target: T1, delta-opioid receptor (Accession NP_000902) (Homo sapiens, UniProt P41143); assay: cAMP assay (receptor G-protein mediated response, HTRF); assay type: cell-based
# T1 sequence (P41143 whole entry): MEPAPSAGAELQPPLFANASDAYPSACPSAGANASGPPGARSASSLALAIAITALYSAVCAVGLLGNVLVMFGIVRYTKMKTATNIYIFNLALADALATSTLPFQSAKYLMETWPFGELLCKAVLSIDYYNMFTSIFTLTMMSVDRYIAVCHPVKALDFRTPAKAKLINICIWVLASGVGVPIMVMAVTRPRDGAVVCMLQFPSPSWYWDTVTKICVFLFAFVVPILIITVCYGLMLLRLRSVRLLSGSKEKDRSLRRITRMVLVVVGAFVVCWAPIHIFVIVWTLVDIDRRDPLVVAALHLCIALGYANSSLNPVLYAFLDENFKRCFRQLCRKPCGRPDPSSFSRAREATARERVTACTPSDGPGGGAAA
# Protocol: (§1) Plasmids encoding delta-opioid receptor (Accession NP_000902), mu-opioid receptor (Accession NP_000905) and kappa-opioid receptor (Accession Assession NP_000903) were generated in the pCMV-Prolink backbone and transfected into an EA-arrestin parental human embryonic kidney (HEK-293) cell line from DiscoveRx Corporation. Clonal stable lines were subsequently selected under G418.
# Cell lines were grown adherently in Minimum Essential Media (Cellgro cat #10-010-CM) containing 10% fetal bovine serum (Hyclone cat #SH30071.03), 4 mM glutamine (Cellgro cat #25-005-CI), 150 ug/ml hygromycin B (Cellgro cat #30-240-CR), 150 ug/ml G418 (Cellgro cat #30-234-CR), and 50 u/50 ug penicillin/streptomycin (Lonza cat #17-603E). […]
# Receptor G-protein mediated responses were determined by measuring changes in intracellular cAMP using CisBio HTRF cAMP HiRange kit (cat #62AM6PEJ) based on time-resolved fluorescence resonance energy transfer (TR-FRET). […] Following a 30 minute incubation at 37° C. the components of the cAMP HiRange kit were added as directed and the plates were read after 1 hour on a BMG PheraStar plate reader. Responses were measured as the ratio of fluorescence at 665 nm/620 nm per manufacturer's instructions.
# [4] = molecular target: T1, delta-opioid receptor (Accession NP_000902); assay: β-arrestin recruitment assay (DiscoveRx PathHunter); assay type: cell-based; details: HEK-293 cells
# Protocol: as §1
# Cell lines were grown adherently in Minimum Essential Media (Cellgro cat #10-010-CM) containing 10% fetal bovine serum (Hyclone cat #SH30071.03), 4 mM glutamine (Cellgro cat #25-005-CI), 150 ug/ml hygromycin B (Cellgro cat #30-240-CR), 150 ug/ml G418 (Cellgro cat #30-234-CR), and 50 u/50 ug penicillin/streptomycin (Lonza cat #17-603E). Prior to the assay cells were removed from the flasks with CellStripper (Cellgro cat #25-056-CI), repeatedly pipetted to disperse cells, and spun at low speed for 5 min at room temperature. Cells were then resuspended at 250,000 cells/ml in growth media and plated at 5,000 cells/well in 384 well plates (Greiner part #784080). […]
# Receptor mediated beta-arrestin recruitment was determined using the DiscoveRx β-arrestin PathHunter Detection kit (cat #93-0001). […] Following a 60 minute incubation at 37° C. the components of the DiscoveRx β-arrestin PathHunter Detection kit were added as directed and the plates were read after 1 hour on a BMG PheraStar plate reader.
# rat [5] = assay: Mechanical allodynia after Freund's Complete Adjuvant, Randall-Selitto (rat); assay type: in vivo; details: route sc, p < 0.05 vs vehicle
# Protocol: (§2) Animals were acclimated to the vivarium for at least 48 hr prior to behavioral testing. Inflammation was induced for both rodent species with the administration of an intraplantar (subcutaneous injection into the plantar surface of the hind paw, i.pl.) injection of 0.10 ml Freund's Complete Adjuvant (FCA).
# For rat studies, the experiments were conducted 24 hours after CFA administration. Rats are tested for mechanical allodynia in a Randall-Selitto apparatus. The inflamed paw is put on a pedestal and a pointed force of increasing intensity (0 to 250 grams) is applied to the paw. When the animal struggles to withdraw from the force the test is stopped and the force to induce that struggle is recorded. Data may be presented as mean grams of force to withdrawal or a percentage of the maximum possible effect.
# mouse [6] = assay: Tactile allodynia produced by intraplantar Freund's Complete Adjuvant, von Frey (mouse); assay type: in vivo; details: route sc, p < 0.05 vs vehicle
# Protocol: as §2
# For mouse studies, the experiments were conducted 48 hours after FCA administration. Tactile allodynia was measured using a series of von Frey monofilaments. These filaments are bendable, plastic and intended to poke, not penetrate, the skin. Animals were placed in a Plexiglas chamber (approximately 10 cm×20 cm×25 cm) and allowed to habituate for 5-10 minutes. The chamber was positioned on top of a mesh screen so that von Frey monofilaments can be presented to the plantar surface of the hind paw that is inflamed. The measurement of tactile sensitivity for the injected hind paw is obtained using the up/down method (LaBuda and Little, 2005, J Neurosci. Methods, 144, 175) with […]. Each trial will start with a von Frey force of 0.6 grams delivered to the hind paw for approximately 1-2 seconds. If there was no withdrawal response, the next higher force was be delivered. If there was a response, the next lower force was delivered. This procedure was performed until no response was made at the highest force (2 grams) or until four stimuli are administered following the initial response. The 50% paw withdrawal threshold for the hind paw was be calculated using the following formula: [Xth]log=[vFi]log+ky where [vFr] is the force of the last von Frey used, k is the average interval (in log units) between the von Frey monofilaments, and y is a value that depends upon the pattern of withdrawal responses (Dixon, Annual Review Pharmacol Toxicol, 1980, 20, 441).
Structure (SMILES),minimal effective dose (mouse [1]),Active Migraine Doses (rat [2]),minimal effective dose (adult male C57 mice; po),also measured
"COc1cc(F)cc(C2CCN(CCn3cccc3)C(C)C2COc2ccc3c(c2)C(=O)NC3)c1 (mixture of isomers) [Compound B1274, (+/−)-6-{[(trans, trans)-4-(3-fluoro-5-methoxyphenyl)-2-methyl-1-[2-(1H-pyrrol-1-yl)ethyl]piperidin-3-yl]methoxy}-2,3-dihydro-1H-isoindol-1-one]",–,–,–,Active TST Dose (adult male C57 mice): ≤10 mg/kg
"COCCOc1ccc([C@@H]2CCN(CCc3ccccc3)[C@H](C)[C@H]2COc2ccc3c(c2)C(=O)NC3)cc1F [Compound B1194, (−)-6-{[trans, trans-4-[3-fluoro-4-(2-methoxyethoxy)phenyl]-2-methyl-1-(2-phenylethy)piperidin-3-yl]methoxy}-2,3-dihydro-1H-isoindol-1-one]",≤ 10 mg/kg,–,–,minimal effective dose (adult male C57 mice): ≤ 10 mg/kg
"CC1C(COc2ccc3c(c2)C(=O)NC3)C(c2ccc3c(c2)OCCC3)CCN1CCn1cccc1 (single isomer, unassigned; (-)) [Compound B1365, (−)-6-{[trans, trans-4-(3,4-dihydro-2H-1-benzopyran-7-yl)-2-methyl-1-[2-(1H-pyrrol-1-yl)ethyl]piperidin-3-yl]methoxy}-2,3-dihydro-1H-isoindol-1-one]",–,≤10 mg/kg,–,Active TST Dose (adult male C57 mice): ≤10 mg/kg; Active Migraine Doses (mouse [1]): ≤10 mg/kg
"COCCOc1ccc([C@@H]2CCN(CCn3cccc3)[C@H](C)[C@H]2COc2ccc3c(c2)C(=O)NC3)cc1F [Compound B1205, (−)-6-{[trans, trans-4-[3-fluoro-4-(2-methoxyethoxy)phenyl]-2-methyl-1-[2-(1H-pyrrol-1-yl)ethyl]piperidin-3-yl]methoxy}-2,3-dihydro-1H-isoindol-1-one]",≤ 10 mg/kg,≤10 mg/kg,≤ 30 mg/kg,–
Fc1ccc([C@@H]2CCNC[C@H]2COc2ccc3c(c2)OCO3)cc1 [Paroxetine],–,–,–,"hDOR G Span ([3]; G-protein mediated cAMP response, HEK-293 cells): <100; selectivity for the delta-opioid receptor ([3]; also tested at mu and kappa-opioid receptor): non-selectivity; hDOR B Span [4]: <100; EC50 ([4]; read-out: hDOR B pEC50 (converted)): > 1 µM"
C[C@@H]1[C@@H](COc2ccc3c(c2)C(=O)NC3)[C@H](c2ccc(F)cc2)CCN1CC1CC1 [Compound B0720],≤ 10 mg/kg,–,≤ 10 mg/kg,Active CFA Dose (rat [5]): ≤30 mg/kg
COCCOc1ccc([C@@H]2CCN(CCc3ccccc3F)[C@H](C)[C@H]2COc2ccc3c(c2)C(=O)NC3)cc1 [Compound B1079],–,–,≤ 30 mg/kg,–
"COc1cc(F)cc([C@@H]2CCN(CCn3cccc3)[C@H](C)[C@H]2COc2ccc3c(c2)C(=O)NC3)c1 (racemic) [Compound B1401, (−)-6-{[trans, trans-4-(3-fluoro-5-methoxyphenyl)-2-methyl-1-[2-(1H-pyrrol-1-yl)ethyl]piperidin-3-yl]methoxy}-2,3-dihydro-1H-isoindol-1-one]",≤ 10 mg/kg,≤10 mg/kg,–,minimal effective dose (adult male C57 mice): ≤ 10 mg/kg
"COc1ccc([C@@H]2CCN(CCn3cccc3)[C@H](C)[C@H]2COc2ccc3c(c2)C(=O)NC3)cc1 [Compound B0876, (−)-6-{[trans, trans-4-(4-methoxyphenyl)-2-methyl-1-[2-(1H-pyrrol-1-yl)ethyl]piperidin-3-yl]methoxy}-2,3-dihydro-1H-isoindol-1-one]",≤ 10 mg/kg,≤10 mg/kg,≤ 30 mg/kg,–
C[C@@H]1[C@@H](COc2ccc3c(c2)C(=O)NC3)[C@H](c2ccccc2)CCN1CCC=C(F)F [Compound B1211],≤ 10 mg/kg,–,–,minimal effective dose (adult male C57 mice): ≤ 10 mg/kg
"COc1ccc([C@@H]2CCN(CCC=C(F)F)[C@H](C)[C@H]2COc2ccc3c(c2)C(=O)NC3)cc1 [Compound B1145, (−)-6-{[trans, trans-1-(4,4-difluorobut-3-en-1-yl)-4-(4-methoxyphenyl)-2-methylpiperidin-3-yl]methoxy}-2,3-dihydro-1H-isoindol-1-one]",≤ 10 mg/kg,–,≤ 10 mg/kg,Active CFA Dose (mouse [6]): ≤10 mg/kg
